Data reported in patent US11000033B2, “Ketone or oxime compound, and herbicide” (NISSAN CHEMICAL CORPORATION, priority 2014, dated 2021).

Assays:
Assay type in all cases: in vivo
[1] = system: Monochoria vaginalis; assay: Test Example 1: herbicidal activity, application before weed generation in submerged conditions (symbol C); conditions: application herbicide amount 320 g/ha
Summary of the method: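 Application before weed emergence: an aqueous dilution of the emulsion formulation was poured onto the surface of 4 cm-deep floodwater on the day of sowing. Effect was judged after 3 weeks (greenhouse, 25–30 °C).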

[2] = system: Echinochloa oryzacola Vasing.; assay: Test Example 2: herbicidal activity, application during weed generation in submerged conditions (symbol A); conditions: Table 23; application herbicide amount 320 g/ha; grade 0-5 by criteria of Test Example 1
Summary of the method: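 Treatment timing was the one- to two-leaf stage, with diluted emulsifiable compound dropped onto the paddy water (depth 4 cm) over alluvial soil. All three species grew from a mixed sowing in a 25° C. to 30° C. greenhouse. Injury was judged by eye 3 weeks on.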

[3] = system: Leptochloa chinensis; assay: Test Example 3: herbicidal effect by foliage application, Wagner pot (symbol D); conditions: application herbicide amount 320 g/ha
Summary of the method: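 The compound, formulated as an emulsion and diluted with water to a predetermined rate, is applied uniformly to leaves of two-week-old seedlings growing in submerged alluvial soil at 25–30 °C. Rice is included. Each plant is assessed 3 weeks later using defined criteria.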

[4] = system: Digitaria ciliaris; assay: Test Example 4: herbicidal effect by soil treatment (symbol F)
Summary of the method: (§1)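 Seeds were sown in sterilized diluvial soil, covered with about 1.5 cm of soil, and the soil surface was sprayed with a water-diluted emulsion of the compound at a predetermined rate. Plants grew in a greenhouse at 25° C. to 30° C.; effects were scored visually 3 weeks after application.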

[5] = system: Setaria viridis; assay: Test Example 4: herbicidal effect by soil treatment (symbol G)
Summary of the method: as §1

[6] = system: Apera spica-venti; assay: Test Example 5: herbicidal effect by foliage application, plastic box (symbol L); conditions: 320 g/ha, 3 weeks after application
Summary of the method: (§2)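 Emulsion formulation, diluted with water to the intended rate, was applied uniformly to leaves by small sprayer. Recipients were 14-day greenhouse-grown seedlings (25° C. to 30° C.). Assessment followed at 3 weeks.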

[7] = system: Abutilon theophrasti; assay: Test Example 5: herbicidal effect by foliage application, plastic box (symbol M); conditions: 320 g/ha, 3 weeks after application
Summary of the method: as §2

[8] = system: Amaranthus retroflexus; assay: Test Example 5: herbicidal effect by foliage application, plastic box (symbol N); conditions: 320 g/ha, 3 weeks after application
Summary of the method: as §2

[9] = system: Chenopodium album; assay: Test Example 5: herbicidal effect by foliage application, plastic box (symbol O); conditions: 320 g/ha, 3 weeks after application
Summary of the method: as §2

[10] = system: Galium spurium; assay: Test Example 5: herbicidal effect by foliage application, plastic box (symbol Q); conditions: 320 g/ha, 3 weeks after application
Summary of the method: as §2

[11] = system: corn; assay: Test Example 5: effect on crop by foliage application, plastic box (symbol c); conditions: 320 g/ha, 3 weeks after application
Summary of the method: (§3)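 Plants were raised from seed in a greenhouse (25° C. to 30° C.) after sowing in a plastic box of sterilized diluvial soil.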

[12] = system: soybean; assay: Test Example 5: effect on crop by foliage application, plastic box (symbol d); conditions: 320 g/ha, 3 weeks after application
Summary of the method: as §3

[13] = system: beet; assay: Test Example 5: effect on crop by foliage application, plastic box (symbol f); conditions: 320 g/ha, 3 weeks after application
Summary of the method: as §3

[14] = system: rapeseed; assay: Test Example 5: effect on crop by foliage application, plastic box (symbol g); conditions: 320 g/ha, 3 weeks after application
Summary of the method: as §3

[15] = application herbicide amount 320 g/ha

Compound | Herbicidal effect grade, C: Monochoria vaginalis [1] | Herbicidal effect grade, A: Echinochloa oryzacola Vasing. [2] | herbicidal effect on D (Leptochloa chinensis), grade 0-5 [3] | F: Digitaria ciliaris, herbicidal effect grade ([4]; 320 g/ha) | G: Setaria viridis, herbicidal effect grade ([5]; 320 g/ha) | F: Digitaria ciliaris, herbicidal effect grade [4, 15] | G: Setaria viridis, herbicidal effect grade [5, 15] | L: Apera spica-venti, herbicidal effect grade [6] | M: Abutilon theophrasti, herbicidal effect grade [7] | N: Amaranthus retroflexus, herbicidal effect grade [8] | O: Chenopodium album, herbicidal effect grade [9] | Q: Galium spurium, herbicidal effect grade [10] | c: corn, effect on crop grade [11] | d: soybean, effect on crop grade [12] | f: beet, effect on crop grade [13] | g: rapeseed, effect on crop grade [14] | further results
CON=C(C)CC1CC(OS(=O)(=O)CCCCl)=C(c2c(C)cc(C)cc2C)C1=O (stereo not shown) [1-142] | 2 (Herbicidal ratio of 20% or higher and lower than 40%) | 5 (Herbicidal ratio of 90% or more (almost completely withered)) | 5 (Herbicidal ratio of 90% or more (almost completely withered)) | 5 (Herbicidal ratio of 90% or more (almost completely withered)) | 5 (Herbicidal ratio of 90% or more (almost completely withered)) |  |  |  |  |  |  |  |  |  |  |  | L: Apera spica-venti, herbicidal effect (criteria 0-5) [6]: 5 (Herbicidal ratio of 90% or more (almost completely withered)); M: Abutilon theophrasti, herbicidal effect (criteria 0-5) [7]: 4 (Herbicidal ratio of 70% or higher and lower than 90%); N: Amaranthus retroflexus, herbicidal effect (criteria 0-5) [8]: 0 (Herbicidal ratio of 5% or lower (almost no effect)); O: Chenopodium album, herbicidal effect (criteria 0-5) [9]: 2 (Herbicidal ratio of 20% or higher and lower than 40%); Q: Galium spurium, herbicidal effect (criteria 0-5) [10]: 3 (Herbicidal ratio of 40% or higher and lower than 70%); c: corn, effect on crop (criteria 0-5) [11]: 5 (Herbicidal ratio of 90% or more (almost completely withered)); d: soybean, effect on crop (criteria 0-5) [12]: 3 (Herbicidal ratio of 40% or higher and lower than 70%); f: beet, effect on crop (criteria 0-5) [13]: 3 (Herbicidal ratio of 40% or higher and lower than 70%); g: rapeseed, effect on crop (criteria 0-5) [14]: 4 (Herbicidal ratio of 70% or higher and lower than 90%)
Cc1cc(C)c(C2=C(O)CC(CC(=O)CC3CC3)C2=O)c(C)c1 (stereo not shown) [2-026] | 0 (Herbicidal ratio of 5% or lower (almost no effect)) | 4 (Herbicidal ratio of 70% or higher and lower than 90%) | 4 (Herbicidal ratio of 70% or higher and lower than 90%) |  |  | 5 (Herbicidal ratio of 90% or more (almost completely withered)) | 5 (Herbicidal ratio of 90% or more (almost completely withered)) | 3 (Herbicidal ratio of 40% or higher and lower than 70%) | 0 (Herbicidal ratio of 5% or lower (almost no effect)) | 0 (Herbicidal ratio of 5% or lower (almost no effect)) | 0 (Herbicidal ratio of 5% or lower (almost no effect)) | 0 (Herbicidal ratio of 5% or lower (almost no effect)) | 2 (Herbicidal ratio of 20% or higher and lower than 40%) | 0 (Herbicidal ratio of 5% or lower (almost no effect)) | 0 (Herbicidal ratio of 5% or lower (almost no effect)) | 3 (Herbicidal ratio of 40% or higher and lower than 70%) | 
CON=C(C)CC1CC(O)=C(c2c(C)cc(C#CC3CC3)cc2C)C1=O (mixture of isomers) [6-010] | 1 (Herbicidal ratio of 5% or higher and lower than 20%) | 5 (Herbicidal ratio of 90% or more (almost completely withered)) | 5 (Herbicidal ratio of 90% or more (almost completely withered)) |  |  | 5 (Herbicidal ratio of 90% or more (almost completely withered)) | 5 (Herbicidal ratio of 90% or more (almost completely withered)) | 5 (Herbicidal ratio of 90% or more (almost completely withered)) | 0 (Herbicidal ratio of 5% or lower (almost no effect)) | 0 (Herbicidal ratio of 5% or lower (almost no effect)) | 3 (Herbicidal ratio of 40% or higher and lower than 70%) | 0 (Herbicidal ratio of 5% or lower (almost no effect)) | 4 (Herbicidal ratio of 70% or higher and lower than 90%) | 3 (Herbicidal ratio of 40% or higher and lower than 70%) | 0 (Herbicidal ratio of 5% or lower (almost no effect)) | 0 (Herbicidal ratio of 5% or lower (almost no effect)) | 
CC(=O)C(C(C)=O)C1CC(O)=C(c2c(C)cc(C)cc2C)C1=O (stereo not shown) [2-002] | 0 (Herbicidal ratio of 5% or lower (almost no effect)) | 0 (Herbicidal ratio of 5% or lower (almost no effect)) | 0 (Herbicidal ratio of 5% or lower (almost no effect)) | 0 (Herbicidal ratio of 5% or lower (almost no effect)) | 0 (Herbicidal ratio of 5% or lower (almost no effect)) |  |  | 2 (Herbicidal ratio of 20% or higher and lower than 40%) | 0 (Herbicidal ratio of 5% or lower (almost no effect)) | 0 (Herbicidal ratio of 5% or lower (almost no effect)) | 3 (Herbicidal ratio of 40% or higher and lower than 70%) | 2 (Herbicidal ratio of 20% or higher and lower than 40%) | 0 (Herbicidal ratio of 5% or lower (almost no effect)) | 0 (Herbicidal ratio of 5% or lower (almost no effect)) | 0 (Herbicidal ratio of 5% or lower (almost no effect)) | 3 (Herbicidal ratio of 40% or higher and lower than 70%) | 
CCc1cc(Br)cc(C)c1C1=C(O)CC(CC(C)=NOC)C1=O (stereo not shown) [6-001] | 0 (Herbicidal ratio of 5% or lower (almost no effect)) | 4 (Herbicidal ratio of 70% or higher and lower than 90%) | 5 (Herbicidal ratio of 90% or more (almost completely withered)) |  |  | 5 (Herbicidal ratio of 90% or more (almost completely withered)) | 5 (Herbicidal ratio of 90% or more (almost completely withered)) | 5 (Herbicidal ratio of 90% or more (almost completely withered)) | 0 (Herbicidal ratio of 5% or lower (almost no effect)) | 0 (Herbicidal ratio of 5% or lower (almost no effect)) | 0 (Herbicidal ratio of 5% or lower (almost no effect)) | 0 (Herbicidal ratio of 5% or lower (almost no effect)) | 5 (Herbicidal ratio of 90% or more (almost completely withered)) | 0 (Herbicidal ratio of 5% or lower (almost no effect)) | 0 (Herbicidal ratio of 5% or lower (almost no effect)) | 2 (Herbicidal ratio of 20% or higher and lower than 40%) | 
